According to PubChem BioAssay (NCI):
Several values for one entry are separate records, joined by “and”; a condition that tells them apart may be missing. Equal values may be shown once.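 Cells were grown in 96-well plates and exposed to each compound for 48 hours at five concentrations; endpoints were interpolated linearly between bracketing concentrations, or set to the highest concentration if not reached. Abbreviation: GI50, concentration required for 50% inhibition of growth. The concentration for full growth arrest is given as TGI.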

Each molecule was assayed on RPMI-8226 leukemia (assay: NCI tumour cell line growth inhibition, 48 h).

Compound	TGI [µM]	GI50 [µM]
O=C1c2ccccc2C(=O)c2sc(Nc3cccc(Cl)c3)nc21	4.07	
CC1=C(C(=O)Nc2ccc(F)c(Cl)c2)C(c2ccc(Cl)cc2)NC(=O)N1 (stereo not given)	36.3	13.6
CN(C)CCCNC1=C(Cl)C(=O)c2ccccc2C1=O	21.4	4.25
O=C(Nc1ccc(F)cc1F)c1cc(I)ccc1O	8.96	2.5
CCOc1ccccc1-n1c(CN2CCN(C(=O)COc3ccc(CNCCCCCCN4C5CCCC4CC(OC(=O)Nc4cc(C)ccc4OC)C5)cc3)CC2)nc2ccccc2c1=O (stereo not given)	3.4	1.13
C/C(CCn1[nH]c(=O)ccc1=O)=N\O	> 100	
COc1ccccc1NC(=O)CC(=O)n1nc(C)c(N=Nc2ccccc2C(=O)O)c1C	> 100	
CC(=O)N1[C@H](C(=O)O)CS[C@H]1c1ccncc1	> 100	
CC1(C)COC(c2ccc(C(F)(F)F)cc2C(O)c2ccc3ccccc3c2)=N1 (stereo not given)	> 100	
COc1ccc(NC(=O)c2cc(OC)cc(OC)c2)cc1	> 100	
CC1(C)OC(=O)C(=Cc2ccc(O)cc2)C(=O)O1	> 100	
COc1ccc(/C=C\c2cc(OC)c3c(c2)OCO3)c(O)c1O	18.2	
CC(=O)OC1COC(n2c(=S)n(-c3ccc(C)cc3)c(=O)c3ccccc32)C(OC(C)=O)C1OC(C)=O (stereo not given)	> 100	
CC[C@@]12CCCN3CC[C@]4(c5cccc(OC)c5N(C(C)=O)[C@@H]4CC1)[C@H]32	> 100	
CSc1ccccc1C#C/C=C\C#Cc1ccccc1N1CCCC1=O		3.34
NC1CCC(Nc2nc(NCc3ccc(-c4ccco4)nc3)c3ncn(C4CCCC4)c3n2)CC1 (stereo not given)	0.0895	0.0119
O=C(CCl)N1c2ccccc2Oc2ccc3ccccc3c21	3.12	0.768
CCCCCCCCSC1=CC(=O)c2nc3ccccc3c3ccnc1c23	> 100	60.2
Cc1ccc(-c2nnc(-c3ccc4ccccc4c3)o2)cc1	> 100	
COc1ccc(-c2cc(-c3ccc(Nc4nc(Nc5ccccc5)nc(Nc5ccc(Cl)cc5)n4)cc3)nc(N)c2C#N)cc1	3.79	0.828
O=c1n(CC2CO2)c(=O)n(CC2CO2)n1CC1CO1 (stereo not given)	> 57.8	13.6
O=C1C2=C(SCCS2)C(=O)c2ccccc21	5.35	

Each molecule was assayed on EKVX NSCLC (assay: NCI tumour cell line growth inhibition, 48 h).

Compound	TGI	GI50 [µM]
O=C1c2ccccc2C(=O)c2sc(Nc3cccc(Cl)c3)nc21	4.89 µM	
CC1=C(C(=O)Nc2ccc(F)c(Cl)c2)C(c2ccc(Cl)cc2)NC(=O)N1 (stereo not given)	49.9 µM	18.5
CN(C)CCCNC1=C(Cl)C(=O)c2ccccc2C1=O	3.41 µM	1.72
O=C(Nc1ccc(F)cc1F)c1cc(I)ccc1O	9.14 µM	2.19
CCOc1ccccc1-n1c(CN2CCN(C(=O)COc3ccc(CNCCCCCCN4C5CCCC4CC(OC(=O)Nc4cc(C)ccc4OC)C5)cc3)CC2)nc2ccccc2c1=O (stereo not given)	3.33 µM	1.67
C/C(CCn1[nH]c(=O)ccc1=O)=N\O	> 100 µM	
COc1ccccc1NC(=O)CC(=O)n1nc(C)c(N=Nc2ccccc2C(=O)O)c1C	83.5 µM	
CC(=O)N1[C@H](C(=O)O)CS[C@H]1c1ccncc1	> 100 µM	
CC1(C)COC(c2ccc(C(F)(F)F)cc2C(O)c2ccc3ccccc3c2)=N1 (stereo not given)	> 100 µM	> 100
COc1ccc(NC(=O)c2cc(OC)cc(OC)c2)cc1	> 100 µM	
CC1(C)OC(=O)C(=Cc2ccc(O)cc2)C(=O)O1	> 100 µM	
COc1ccc(/C=C\c2cc(OC)c3c(c2)OCO3)c(O)c1O	40.4 µM	
CC(=O)OC1COC(n2c(=S)n(-c3ccc(C)cc3)c(=O)c3ccccc32)C(OC(C)=O)C1OC(C)=O (stereo not given)	> 100 µM	
CC[C@@]12CCCN3CC[C@]4(c5cccc(OC)c5N(C(C)=O)[C@@H]4CC1)[C@H]32	> 100 µM	
CSc1ccccc1C#C/C=C\C#Cc1ccccc1N1CCCC1=O	> 50 µM	> 10.3
NC1CCC(Nc2nc(NCc3ccc(-c4ccco4)nc3)c3ncn(C4CCCC4)c3n2)CC1 (stereo not given)	0.538 µM and 0.242 µM	0.0465
O=C(CCl)N1c2ccccc2Oc2ccc3ccccc3c21	5.9 µM	2.2
CCCCCCCCSC1=CC(=O)c2nc3ccccc3c3ccnc1c23	> 100 µM	> 100
Cc1ccc(-c2nnc(-c3ccc4ccccc4c3)o2)cc1	> 100 µM	
COc1ccc(-c2cc(-c3ccc(Nc4nc(Nc5ccccc5)nc(Nc5ccc(Cl)cc5)n4)cc3)nc(N)c2C#N)cc1	> 22.9 µM	1.44
O=c1n(CC2CO2)c(=O)n(CC2CO2)n1CC1CO1 (stereo not given)	> 100 µM	32.7
O=C1C2=C(SCCS2)C(=O)c2ccccc21	2.69 µM	

These molecules were tested on CAKI-1 renal (assay: NCI tumour cell line growth inhibition, 48 h).

Compound	TGI [µM]	GI50 [µM]
O=C1c2ccccc2C(=O)c2sc(Nc3cccc(Cl)c3)nc21	4.97	
CC1=C(C(=O)Nc2ccc(F)c(Cl)c2)C(c2ccc(Cl)cc2)NC(=O)N1 (stereo not given)	71.2	21
CN(C)CCCNC1=C(Cl)C(=O)c2ccccc2C1=O	20.7	7.14
O=C(Nc1ccc(F)cc1F)c1cc(I)ccc1O	6.49	1.92
CCOc1ccccc1-n1c(CN2CCN(C(=O)COc3ccc(CNCCCCCCN4C5CCCC4CC(OC(=O)Nc4cc(C)ccc4OC)C5)cc3)CC2)nc2ccccc2c1=O (stereo not given)	3.06	1.63
C/C(CCn1[nH]c(=O)ccc1=O)=N\O	> 100	
COc1ccccc1NC(=O)CC(=O)n1nc(C)c(N=Nc2ccccc2C(=O)O)c1C	> 100	
CC(=O)N1[C@H](C(=O)O)CS[C@H]1c1ccncc1	> 100	
CC1(C)COC(c2ccc(C(F)(F)F)cc2C(O)c2ccc3ccccc3c2)=N1 (stereo not given)	> 100	> 10
COc1ccc(NC(=O)c2cc(OC)cc(OC)c2)cc1	> 100	
CC1(C)OC(=O)C(=Cc2ccc(O)cc2)C(=O)O1	> 100	
COc1ccc(/C=C\c2cc(OC)c3c(c2)OCO3)c(O)c1O	20.5	
CC(=O)OC1COC(n2c(=S)n(-c3ccc(C)cc3)c(=O)c3ccccc32)C(OC(C)=O)C1OC(C)=O (stereo not given)	> 100	
CC[C@@]12CCCN3CC[C@]4(c5cccc(OC)c5N(C(C)=O)[C@@H]4CC1)[C@H]32	> 100	
CSc1ccccc1C#C/C=C\C#Cc1ccccc1N1CCCC1=O	> 50	> 10.3
NC1CCC(Nc2nc(NCc3ccc(-c4ccco4)nc3)c3ncn(C4CCCC4)c3n2)CC1 (stereo not given)	12.6	2.86
O=C(CCl)N1c2ccccc2Oc2ccc3ccccc3c21	3.8	1.02
CCCCCCCCSC1=CC(=O)c2nc3ccccc3c3ccnc1c23	> 100	59.8
Cc1ccc(-c2nnc(-c3ccc4ccccc4c3)o2)cc1	> 86.8	
COc1ccc(-c2cc(-c3ccc(Nc4nc(Nc5ccccc5)nc(Nc5ccc(Cl)cc5)n4)cc3)nc(N)c2C#N)cc1	1.49	0.705
O=c1n(CC2CO2)c(=O)n(CC2CO2)n1CC1CO1 (stereo not given)	21.7	2.22
O=C1C2=C(SCCS2)C(=O)c2ccccc21	3.32	

What follows are molecules tested on NCI-H460 lung (assay: NCI tumour cell line growth inhibition, 48 h).

Compound	TGI [µM]	GI50 [µM]
O=C1c2ccccc2C(=O)c2sc(Nc3cccc(Cl)c3)nc21	4.25	
CC1=C(C(=O)Nc2ccc(F)c(Cl)c2)C(c2ccc(Cl)cc2)NC(=O)N1 (stereo not given)	37.3	17.5
CN(C)CCCNC1=C(Cl)C(=O)c2ccccc2C1=O	25.2	8.61
O=C(Nc1ccc(F)cc1F)c1cc(I)ccc1O	> 100	3.13
CCOc1ccccc1-n1c(CN2CCN(C(=O)COc3ccc(CNCCCCCCN4C5CCCC4CC(OC(=O)Nc4cc(C)ccc4OC)C5)cc3)CC2)nc2ccccc2c1=O (stereo not given)	1.94	0.806
C/C(CCn1[nH]c(=O)ccc1=O)=N\O	> 100	
COc1ccccc1NC(=O)CC(=O)n1nc(C)c(N=Nc2ccccc2C(=O)O)c1C	> 100	
CC(=O)N1[C@H](C(=O)O)CS[C@H]1c1ccncc1	> 100	
CC1(C)COC(c2ccc(C(F)(F)F)cc2C(O)c2ccc3ccccc3c2)=N1 (stereo not given)	> 10	
COc1ccc(NC(=O)c2cc(OC)cc(OC)c2)cc1	> 100	
CC1(C)OC(=O)C(=Cc2ccc(O)cc2)C(=O)O1	> 100	
COc1ccc(/C=C\c2cc(OC)c3c(c2)OCO3)c(O)c1O	22.2	
CC(=O)OC1COC(n2c(=S)n(-c3ccc(C)cc3)c(=O)c3ccccc32)C(OC(C)=O)C1OC(C)=O (stereo not given)	> 100	
CC[C@@]12CCCN3CC[C@]4(c5cccc(OC)c5N(C(C)=O)[C@@H]4CC1)[C@H]32	> 100	
CSc1ccccc1C#C/C=C\C#Cc1ccccc1N1CCCC1=O	> 50	
NC1CCC(Nc2nc(NCc3ccc(-c4ccco4)nc3)c3ncn(C4CCCC4)c3n2)CC1 (stereo not given)	11.3	0.0469
O=C(CCl)N1c2ccccc2Oc2ccc3ccccc3c21	4.11	2
CCCCCCCCSC1=CC(=O)c2nc3ccccc3c3ccnc1c23	> 100	26.3
Cc1ccc(-c2nnc(-c3ccc4ccccc4c3)o2)cc1	> 100	
COc1ccc(-c2cc(-c3ccc(Nc4nc(Nc5ccccc5)nc(Nc5ccc(Cl)cc5)n4)cc3)nc(N)c2C#N)cc1	> 39	2.18
O=c1n(CC2CO2)c(=O)n(CC2CO2)n1CC1CO1 (stereo not given)	30.8	0.416
O=C1C2=C(SCCS2)C(=O)c2ccccc21	3.38	

These molecules were tested on HCT-116 colon (assay: NCI tumour cell line growth inhibition, 48 h).

Compound	TGI [µM]	GI50 [µM]
O=C1c2ccccc2C(=O)c2sc(Nc3cccc(Cl)c3)nc21	2.54	
CC1=C(C(=O)Nc2ccc(F)c(Cl)c2)C(c2ccc(Cl)cc2)NC(=O)N1 (stereo not given)	25.4	12.8
CN(C)CCCNC1=C(Cl)C(=O)c2ccccc2C1=O	6.04	2.28
O=C(Nc1ccc(F)cc1F)c1cc(I)ccc1O	7.6	2.53
CCOc1ccccc1-n1c(CN2CCN(C(=O)COc3ccc(CNCCCCCCN4C5CCCC4CC(OC(=O)Nc4cc(C)ccc4OC)C5)cc3)CC2)nc2ccccc2c1=O (stereo not given)	1.32	0.616
C/C(CCn1[nH]c(=O)ccc1=O)=N\O	> 100	
COc1ccccc1NC(=O)CC(=O)n1nc(C)c(N=Nc2ccccc2C(=O)O)c1C	> 100	
CC(=O)N1[C@H](C(=O)O)CS[C@H]1c1ccncc1	> 100	
CC1(C)COC(c2ccc(C(F)(F)F)cc2C(O)c2ccc3ccccc3c2)=N1 (stereo not given)	> 10	
COc1ccc(NC(=O)c2cc(OC)cc(OC)c2)cc1	> 100	
CC1(C)OC(=O)C(=Cc2ccc(O)cc2)C(=O)O1	> 100	
COc1ccc(/C=C\c2cc(OC)c3c(c2)OCO3)c(O)c1O	17.7	
CC(=O)OC1COC(n2c(=S)n(-c3ccc(C)cc3)c(=O)c3ccccc32)C(OC(C)=O)C1OC(C)=O (stereo not given)	> 100	
CC[C@@]12CCCN3CC[C@]4(c5cccc(OC)c5N(C(C)=O)[C@@H]4CC1)[C@H]32	> 100	
CSc1ccccc1C#C/C=C\C#Cc1ccccc1N1CCCC1=O	> 50	
NC1CCC(Nc2nc(NCc3ccc(-c4ccco4)nc3)c3ncn(C4CCCC4)c3n2)CC1 (stereo not given)	11.1	0.0324
O=C(CCl)N1c2ccccc2Oc2ccc3ccccc3c21	1.29	0.358
CCCCCCCCSC1=CC(=O)c2nc3ccccc3c3ccnc1c23	> 100	43.1
Cc1ccc(-c2nnc(-c3ccc4ccccc4c3)o2)cc1	> 100	
COc1ccc(-c2cc(-c3ccc(Nc4nc(Nc5ccccc5)nc(Nc5ccc(Cl)cc5)n4)cc3)nc(N)c2C#N)cc1	1.37	0.675
O=c1n(CC2CO2)c(=O)n(CC2CO2)n1CC1CO1 (stereo not given)	> 100	18.9
O=C1C2=C(SCCS2)C(=O)c2ccccc21	3.04	

What follows are molecules tested on UO-31 renal (assay: NCI tumour cell line growth inhibition, 48 h).

Compound	TGI [µM]
O=C1c2ccccc2C(=O)c2sc(Nc3cccc(Cl)c3)nc21	4
